SMILES strings stand for the structures. Numbering of substitutions follows the chain as printed.

The target in assay [1] is T1, Msh2-Msh3 (Saccharomyces cerevisiae, UniProt P25336+P25847).
T1 sequence (P25847 1-964): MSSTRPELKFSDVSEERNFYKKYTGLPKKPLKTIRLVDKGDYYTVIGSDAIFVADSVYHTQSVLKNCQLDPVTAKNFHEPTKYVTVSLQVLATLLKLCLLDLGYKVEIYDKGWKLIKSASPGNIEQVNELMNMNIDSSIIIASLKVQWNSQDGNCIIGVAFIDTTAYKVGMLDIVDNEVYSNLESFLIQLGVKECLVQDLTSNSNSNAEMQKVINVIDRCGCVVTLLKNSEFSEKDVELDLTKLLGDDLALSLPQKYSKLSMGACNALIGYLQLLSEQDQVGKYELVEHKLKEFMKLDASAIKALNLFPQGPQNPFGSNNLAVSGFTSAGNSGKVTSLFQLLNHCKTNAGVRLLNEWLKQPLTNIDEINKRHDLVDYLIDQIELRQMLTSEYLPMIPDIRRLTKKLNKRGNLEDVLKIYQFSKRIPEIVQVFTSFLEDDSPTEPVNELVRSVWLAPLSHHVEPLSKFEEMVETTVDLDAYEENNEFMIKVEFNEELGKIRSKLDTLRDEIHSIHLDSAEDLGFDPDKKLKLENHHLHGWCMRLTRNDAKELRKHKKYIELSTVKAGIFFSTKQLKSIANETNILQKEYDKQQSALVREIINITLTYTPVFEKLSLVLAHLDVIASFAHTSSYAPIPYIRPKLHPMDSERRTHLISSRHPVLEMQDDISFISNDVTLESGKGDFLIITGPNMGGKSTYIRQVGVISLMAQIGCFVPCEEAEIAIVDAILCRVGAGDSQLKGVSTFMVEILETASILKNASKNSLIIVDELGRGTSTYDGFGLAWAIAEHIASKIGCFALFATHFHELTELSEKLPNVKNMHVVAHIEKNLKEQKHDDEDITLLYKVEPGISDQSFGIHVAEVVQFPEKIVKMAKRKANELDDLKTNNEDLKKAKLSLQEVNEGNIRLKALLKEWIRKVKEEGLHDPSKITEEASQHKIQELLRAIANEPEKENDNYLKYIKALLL
T1 sequence (P25336 1-1018): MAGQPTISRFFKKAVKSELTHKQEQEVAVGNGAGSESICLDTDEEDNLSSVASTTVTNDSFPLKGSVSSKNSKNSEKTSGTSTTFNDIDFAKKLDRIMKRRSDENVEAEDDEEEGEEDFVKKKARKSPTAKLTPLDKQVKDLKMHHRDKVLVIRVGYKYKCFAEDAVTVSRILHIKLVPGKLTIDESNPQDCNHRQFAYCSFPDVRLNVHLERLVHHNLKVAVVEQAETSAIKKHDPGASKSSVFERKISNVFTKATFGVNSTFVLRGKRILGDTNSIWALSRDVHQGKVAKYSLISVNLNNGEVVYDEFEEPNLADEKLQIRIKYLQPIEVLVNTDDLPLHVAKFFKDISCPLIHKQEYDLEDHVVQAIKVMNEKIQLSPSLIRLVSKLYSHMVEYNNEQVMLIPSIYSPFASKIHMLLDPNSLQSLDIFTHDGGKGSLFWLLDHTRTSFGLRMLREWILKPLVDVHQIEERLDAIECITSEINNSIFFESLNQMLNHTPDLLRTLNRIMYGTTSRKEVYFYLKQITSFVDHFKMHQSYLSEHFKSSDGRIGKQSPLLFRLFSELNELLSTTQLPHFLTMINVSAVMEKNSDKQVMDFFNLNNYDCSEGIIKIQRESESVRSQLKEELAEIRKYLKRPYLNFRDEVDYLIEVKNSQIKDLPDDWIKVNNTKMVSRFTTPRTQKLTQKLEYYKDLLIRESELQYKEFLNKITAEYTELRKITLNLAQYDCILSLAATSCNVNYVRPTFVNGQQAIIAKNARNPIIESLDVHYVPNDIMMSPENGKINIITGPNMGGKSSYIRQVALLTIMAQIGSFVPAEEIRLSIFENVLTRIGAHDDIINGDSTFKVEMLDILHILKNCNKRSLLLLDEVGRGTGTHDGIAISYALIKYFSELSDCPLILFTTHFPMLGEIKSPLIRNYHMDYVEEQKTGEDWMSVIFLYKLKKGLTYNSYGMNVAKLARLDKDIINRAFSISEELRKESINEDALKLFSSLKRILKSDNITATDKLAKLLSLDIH
Description: nitrocellulose filter binding, competition with […]-ATPγS after ADP pre-binding. The settings on record: no DNA; 0.5 mM ADP, 8 μM ATPγS, 50 nM protein.

Assay [2] has as its target T2, Msh2-Msh3 (Saccharomyces cerevisiae, UniProt P25336+P25847, P25336:Y942A).
T2 sequence (P25847 1-964): T1 sequence (P25847 1-964)
T2 sequence (P25336 1-1018 Y942A): T1 sequence (P25336 1-1018) with Y942A
Description: ATPγS titration into steady-state coupled ATPase assay. The assay is classed as biochemical.

Assay [3] addresses T1, Msh2-Msh3. The description is as above. Type of assay: biochemical.

`Nc1ncnc2c1ncn2[C@@H]1O[C@H](COP(=O)(O)OP(=O)(O)O)[C@@H](O)[C@H]1O` [ADP]: the “fraction of ATPγS bound relative to no ADP, 30 s” value on Msh2-Msh3 [1] amounted to 0.54 ± 0.15 fraction.

As for `Nc1ncnc2c1ncn2[C@@H]1O[C@H](CO[P@](=O)(O)O[P@](=O)(O)O[P@@](=O)(O)S)[C@@H](O)[C@H]1O` [ATPγS], the figures for the IC50 against Msh2-Msh3 [2] and at Msh2-Msh3 [3] were 0.8 mM and 6.3 mM, respectively.

The IC50 is the concentration that inhibits the measured activity by half. High values mean a need for much substance, low ones inhibition by little substance.
